Laboratory results as given in PMC6452685, “Lysyl-tRNA synthetase as a drug target in malaria and cryptosporidiosis” (Proceedings of the National Academy of Sciences of the …, 2019).

What was measured:
[1] = target: CpKRS (Cryptosporidium parvum, UniProt Q5CR27); test: CpKRS SAR assay, luciferase ATP consumption (Kinase-Glo); type: biochemical
Description: (§1) We produced recombinant PfKRS1 (77–583 and 80–583), CpKRS (46-end), and HsKRS (full-length) proteins and developed biochemical assays based on the luciferase ATP consumption assay (Kinase-Glo; Promega) ([16]), which was suitable for the high-throughput screening, and the pyrophosphate generation assay (EnzChek) ([17]) format for kinetic characterization of the enzymes. The activities of recombinant enzymes were analyzed by monitoring only the first stage of the aminoacylation reaction. This reaction is suitable for high-throughput screening campaigns and makes the reaction more amenable for steady-state kinetic studies. By using the EnzChek assay, which monitors the production of pyrophosphate (when coupled with pyrophosphatase), Km values were obtained for PfKRS1, CpKRS, and HsKRS for ATP and L-lysine (Table 1 and SI Appendix, Fig. S1 and Table S1). […] This may be due to structural differences (see below) between the active sites of the parasite and human enzymes. […]
(§2) 2.7 PfKR S1, CpKRS and HsKR S S AR Ass ay Usin g L ucife r ase ATP C onsumption ( Kinase Glo ®) Inhi bi ti on of KRS acti vity by cl adospori n and other compou nds was assayed i n t he buffered me di um.
(§3) Each as s ay w el l was compos ed of b uffer (as des cri bed i n Ta bl e S3), 10 µM l ysi ne and ei ther 8.1 nM PfKRS1, 8.1 nM CpKRS or 6.6 nM HsKRS. […] The react i on w a s initiated by the addition of 2 µM ATP. The plate was incubated with shaking at 90 rpm and 30°C for 120 mi n. […] Maximum and minimum signal controls were included in each reaction plate. […] Analysis and calculation of inhibitors IC50 values were performed using Graphpad® Prism software (GraphPad S oftware, San Diego, CA). […]

[2] = tested on: HepG2 cells; test: HepG2 cytotoxicity; type: cell-based; settings: Homo sapiens
Text: 3.2 Cytotoxicity Studies (Dundee)
In vi t ro cy totox i ci ty s tudies can be ca rri ed out us i ng Hep G 2 (Human C aucas i an hepatocy te ca rci noma, ECACC cat. no. 850 114 30) us ed as i ndi cators f or g eneral mammal i an cel l tox i ci ty . […]
3.3 In vitro Cell Assay D ata Analysis (Du ndee) […]
as 0%. Qual i ty control c ri teri a for passi ng pl ates were as fol l ow s : Z’ > 0.
< 15 . T he f ormula used to calculate Z’ is 1- 3´ (St D e v _ hi gh + St D e v_ low) . […]
Al l EC50 Curve fitti ng was undertaken usi ng XLFi t versi on 4.2 usi ng Model 205 wi th the foll owi ng 4 paramet ri c equat i on: A + (?-A) ,where A=% i nhi bi ti on at bo ttom, B=% i nhi bi ti on at top, C= EC , […]
D= slope, x= inhibitor concentration a nd y= % inhibition. […]
was fixed to 100 only when at least 50% of inhibition was reached. […]

[3] = CHI logD; type: physicochemical; settings: reversed-phase HPLC (Luna C18 column), pH 7.4
Description: targets. Thi s can be determi ned by ei ther l og D or Log P measurements, whi ch are tradi ti onal ly qui te time consuming and require quite large amounts of com pound to determine accurately.
The CHI Log D assay, fi rst descri bed by Valkό et a l. (17), has been adapt ed and perfo rmed at pH 7. […] An ali quot (10 µl) i s then i njected onto a Luna C18 col umn (Phenomenex, Maccl esfi el d, UK, 4.6 x 150 mm) wi th 5 µ m pa rti cl e size. Mobil e phase A (MPA) i s 50 mM ammoni um acetate (pH 7.4) and mobi l e Phase B (MPB) i s MeCN. The LC system used was a Dionex Ultimate 3000 HLPC where 10 0% MPA was hel d for the i ni ti al 1.5 mi n of the run, then a l i near gradi ent to 0% MPA takes pl ace over the next 10 mi n bef ore being held there fo r a furthe r 2. 5 mi n bef ore re-eq uilibration back to 100% MPA at 14 min with data collection continuing until 1 5 mi n. Flow rate was 1 ml/mi n w i t h det ecti on at 25 4 nm U V and ambi ent t emperat ure.
The ret ent i on t i me (t R) of t he unk nown drug is interpolated from the slope and intercept created us i ng ret ent i on t i mes of s t andard mi x t ure c o mponent s cont ai ni ng paracet amol , t heophy l l i ne, caffei ne, benzi mi dazol e, col chi ci ne, carbamazepi ne, i ndol e, propi ophenone, b uty rophen one , valerophenone and hepatophenone (prepared at 10 µg/ml in MeCN:water [1/1, by v ol ume]), w hi ch cov ers the C HI l og D rang e from -1 t o 4. […]
4.4 Int r ins ic C le ar ance (CLi) experiments
The mous e an d h uman c ry opres erv ed he pat ocy t es w ere s uppl i ed by Xenot ech (bat ches M C 53 9 n a HUE50H ). The procedure was carried out as reported prev i ous l y (15). […] Immediately, at time zero, then at 3, 6, 9, 15 and 30 min an aliquot ( 50 μl) o f the i ncubati on mi x ture was remov ed and mi x ed with acetonitrile (100 μl) contai ni ng i nternal s tandard to stop the reaction. […] XLfi t software (I DBS, Guildford UK) was used to cal cul ate the exponenti al decay and consequentl y the rate cons tant (ke-1) from the rati o of peak area of tes t compou nd to i nternal s tandard at each ti me poi nt . […]

[4] = target: PfKRS1 (Plasmodium falciparum, UniProt Q8IDJ8); test: PfKRS1 SAR assay, luciferase ATP consumption (Kinase-Glo); type: biochemical; parameters: recombinant PfKRS1 (77–583 and 80–583); 6xHis (N); made in house; host or cells: E. coli Rosetta BL21(DE3), vector pAVA0421; settings: for IC50: Kinase-Glo assay
Description: as §1, §2, §3

Sequence of PfKRS1 (Q8IDJ8 77-583): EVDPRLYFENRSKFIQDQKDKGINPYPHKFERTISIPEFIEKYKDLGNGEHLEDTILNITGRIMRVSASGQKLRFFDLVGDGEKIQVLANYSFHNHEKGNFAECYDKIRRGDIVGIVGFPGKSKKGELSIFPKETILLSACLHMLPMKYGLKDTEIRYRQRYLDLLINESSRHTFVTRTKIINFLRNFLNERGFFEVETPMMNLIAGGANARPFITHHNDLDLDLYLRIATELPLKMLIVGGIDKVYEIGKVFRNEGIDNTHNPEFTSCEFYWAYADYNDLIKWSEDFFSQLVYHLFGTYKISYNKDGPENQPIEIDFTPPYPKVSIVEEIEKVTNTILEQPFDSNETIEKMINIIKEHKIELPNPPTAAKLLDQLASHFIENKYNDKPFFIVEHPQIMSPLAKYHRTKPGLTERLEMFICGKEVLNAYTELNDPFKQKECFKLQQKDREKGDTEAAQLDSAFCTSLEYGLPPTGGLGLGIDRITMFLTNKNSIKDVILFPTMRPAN
Sequence of CpKRS (Q5CR27 entry or part of it): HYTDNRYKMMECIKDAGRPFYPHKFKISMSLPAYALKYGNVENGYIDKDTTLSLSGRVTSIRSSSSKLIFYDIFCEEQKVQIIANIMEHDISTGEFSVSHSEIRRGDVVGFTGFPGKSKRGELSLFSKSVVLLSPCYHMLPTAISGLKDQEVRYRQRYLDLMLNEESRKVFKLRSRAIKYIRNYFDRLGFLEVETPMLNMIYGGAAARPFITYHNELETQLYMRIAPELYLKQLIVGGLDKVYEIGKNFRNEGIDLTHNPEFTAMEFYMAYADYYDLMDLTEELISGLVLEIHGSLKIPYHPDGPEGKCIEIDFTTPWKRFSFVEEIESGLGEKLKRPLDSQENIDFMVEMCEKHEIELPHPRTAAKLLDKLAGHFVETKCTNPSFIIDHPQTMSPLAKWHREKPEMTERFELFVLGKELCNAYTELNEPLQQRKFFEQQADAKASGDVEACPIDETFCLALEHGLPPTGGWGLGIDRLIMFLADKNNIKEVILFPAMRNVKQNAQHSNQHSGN

| SMILES | IC50 [1] | EC50 [2] | chromatographic logD [3] | IC50 [4] | selectivity ratio for HsKRS/PfKRS1 ([4]; in Kinase-Glo) |
| --- | --- | --- | --- | --- | --- |
| C[C@H]1CCC[C@H](C[C@H]2Cc3cc(O)cc(O)c3C(=O)O2)O1 [Compound 1, cladosporin, reference compound] | 38 nM | > 50000 nM | 2.4 | 4 nM |  |
| O=C(NCC1CCCCC1)c1cc(=O)c2ccccc2o1 [Compound 2] | 22 nM | > 50000 nM | 2.9 | 4 nM |  |
| O=C(NCC1CCCCC1)c1cc(=O)c2cc(F)ccc2o1 [Compound 3] | 39 nM | > 50000 nM |  | 14 nM |  |
| O=C(NCC1(O)CCCCC1)c1cc(=O)c2cc(F)ccc2o1 [Compound 4] | 8 nM | 32000 nM |  | 5 nM |  |
| O=C(NCC1(O)CCC(F)(F)CC1)c1cc(=O)c2cc(F)ccc2o1 [Compound 5] | 130 nM | 49000 nM | 1.7 | 15 nM | 120 fold |
